Reference: patent publication US20250346629A1, “USE OF D-ENANTIOMERIC PEPTIDE LIGANDS OF MONOMERIC ALPHA-SYNUCLEIN FOR THE THERAPY OF VARIOUS SYNUCLEINOPATHIES” (PRIAVOID GMBH, priority 2021, published 2025)
Square brackets hold non-standard residues; d marks the D form. Peptide text beside a SMILES is read from it.

Experiments:
full-length α-syn = full-length α-syn (Homo sapiens, UniProt P37840); test: MST measurement of fluorophore-labeled peptides with full-length α-syn (FIG. 10); format: binding; conditions: 100 nM labeled peptide, PBS pH 7.4, 25° C., individual measurement
Description: The peptides were fluorescence labeled by means of cysteine-maleimide coupling. SVD-1_Cys and SVD 1a_Cys were fluorescence labeled at the C-terminus with a fivefold or tenfold molar excess of TCEP and CF633-PEG2-maleimide (Sigma-Aldrich, USA). The labeling reaction was carried out in 25 mM NaPi, PH 7.0, for 2 h at RT. The labeled peptides were purified at 25° C. using an Agilent 1260 Infinity II System and a C-18 RP-HPLC column (Zorbax 300 SB-C8/SB-C 18, Agilent, USA). The mobile phases consisted of A: water+0.1% TFA, and B: acetonitrile+0.1% TFA. The fluorescence-labeled peptides and proteins were eluted with a gradient of 5-40% (v/v) B in 30 min. The fluorescence-labeled products were fractionated using the absorption wavelength of the fluorophore (CF633: 633 nm) and the pooled samples were subsequently lyophilized and redissolved in the appropriate buffer. The protein concentrations were determined by means of UV-vis and the fluorescence-labeled samples were stored at −20° C.
The experiments for microscale thermophoresis (MST) were carried out using a Monolith NT.115 device (NanoTemper Technologies GmbH, GE). Fluorescence-labeled peptides were diluted in PBS, PH 7.4 to a final concentration of 100 nM. […] The data was evaluated with the thermophoresis effect, using the NT analysis software (version 1.5.41) supplied by the manufacturer. […]

α-syn PFF oligomers = α-syn PFF oligomers (Homo sapiens, UniProt P37840); test: Decomposition of PFF oligomers (HPLC-SEC, DLS, AFM; FIG. 17); format: biochemical; conditions: 100 nM monomer-equivalent PFF oligomers, 400 and 1600 nM SVD-1a, 3 days, 37° C., PBS pH 7.4
Description: PFF oligomers were produced as follows. Firstly, insoluble PFF was produced by incubating 300 μM of recombinant α-syn in a LoBind reaction tube (Eppendorf GmbH, GE) with a borosilicate glass bead (d=3.0 mm; Hilgenberg, DE) in 20 mM NaPi, pH 7.0, 150 […] for one week at 37° C. The insoluble PFF was harvested by ultracentrifugation at 100 000×g for 30 min at 4° C., and the pellet was washed several times with 20 mM NaPi, PH 7.0, 150 mM NaCl. The monomer equivalent concentration was determined by measuring the α-syn concentration in the supernatant after the first centrifugation and subtracting this from the start concentration for the fibrillation. The insoluble PFF was resuspended in buffer and frozen at −80° C. with liquid N2. […]
The elimination of PFF oligomers was assessed by SEC and the subsequent detection of the PFF oligomer and monomer peaks. […] The proteins were detected at A214.
The measurements were carried out using a SpectroSize 300 131 (XtalConcepts, GE) device and a sample volume of 1 ml in a sealed quartz cuvette (Hellma Group, GE). […] Data points were recorded every 30 seconds for time-dependent DLS measurements. […]
(A) HPLC-SEC measurement samples were injected onto a Bio SEC-3 column (300 Å, Agilent, USA). The PFF oligomers eluted after approximately 5 min, while the α-syn monomer was detected after approximately 8.6 min. […]

CC[C@@H](C)[C@@H](NC(=O)[C@@H](Cc1c[nH]cn1)NC(=O)[C@@H](CCC(=O)O)NC(=O)[C@@H](CCC(N)=O)NC(=O)[C@@H](Cc1c[nH]c2ccccc12)NC(=O)[C@@H](Cc1ccc(O)cc1)NC(=O)[C@H](NC(=O)[C@@H](CCC(=O)O)NC(=O)[C@@H](Cc1c[nH]cn1)NC(=O)[C@H](NC(=O)[C@H]1CCCN1C(=O)[C@@H](CC(C)C)NC(=O)[C@H](N)CCCNC(=N)N)[C@H](C)O)[C@H](C)O)C(=O)N[C@H](Cc1c[nH]c2ccccc12)C(=O)N[C@H](Cc1c[nH]cn1)C(=O)N[C@H](C)C(=O)N[C@H](CCCNC(=N)N)C(=O)N[C@H](CCCNC(=N)N)C(=O)N[C@H](CCCNC(=N)N)C(=O)N[C@H](CCCNC(=N)N)C(=O)N[C@H](CCCNC(=N)N)C(N)=O [SVD-1a, rlpthetywqehiwharrrrr] (H-[dR][dL][dP][dT][dH][dE][dT][dY][dW][dQ][dE][dH][dI][dW][dH][dA][dR][dR][dR][dR][dR]-NH2)
Kd (full-length α-syn): 390 nM | effect on PFF oligomers (α-syn PFF oligomers): decomposes the PFF oligomers into α-syn monomers
